Source: US20230117034A1, “PYRAZOLOTRIAZINES” (Bayer Aktiengesellschaft, priority 2019, published 2023)

Columns and labels:
[1] = biological target: T1, CDK2/CycE (Homo sapiens, UniProt P24941); test: CDK2/CycE kinase assay (TR-FRET, 2 mM ATP); format: biochemical; conditions: 2 mM ATP (high ATP); median; read-out: CDK2/CyclinE, 2 mM ATP (high ATP), IC50 (median)
T1 construct: purchased ProQinase GmbH (Freiburg, Germany); host or cells: insect cells (Sf9)
From the text: CDK2/CycE-inhibitory activity of compounds of the present invention was quantified employing the CDK2/CycE TR-FRET assay as described in the following paragraphs.
Recombinant fusion proteins of GST and human CDK2 and of GST and human CycE, expressed in insect cells (Sf9) and purified by Glutathion-Sepharose affinity chromatography, were purchase from ProQinase GmbH (Freiburg, Germany). As substrate for the kinase reaction biotinylated peptide biotin-Ttds-YISPLKSPYKISEG (C-terminus in amid form) was used which can be purchased e.g. form the company JERINI peptide technologies (Berlin, Germany).
For the assay 50 nanoL of a 100 fold concentrated solution of the test compound in DMSO was pipetted into a black low volume 384 well microtiter plate or a black 1536 well microtiter plate (both Greiner Bio-One, Frickenhausen, Germany), 2 microL of a solution of CDK2/CycE in aqueous assay buffer [50 millimol/L Tris/HCl pH 8.0, 10 millimol/L MgCl2, 1.0 millimol/L dithiothreitol, 0.1 millimol/L sodium ortho-vanadate, 0.01% (v/v) Nonidet-P40 (Sigma)] were added and the mixture was incubated for 15 min at 22° C. to allow pre-binding of the test compounds to the enzyme before the start of the kinase reaction. Then the kinase reaction was started by the addition of 3 microL of a solution of adenosine-tri-phosphate (ATP, 3.33 millimol/L=>final conc. in the 5 microL assay volume is 2 millimol/L) and substrate (1.25 micromol/L=>final conc. in the 5 microL assay volume is 0.75 micromol/L) in assay buffer and the resulting mixture was incubated for a reaction time of 25 min at 22° C. The concentration of CDK2/CycE was adjusted depending of the activity of the enzyme lot and was chosen appropriate to have the assay in the linear range, typical concentrations were in the range of 10 ng/ml. The reaction was stopped by the addition of 3 microL of a solution of TR-FRET detection reagents (0.333 micromol/L streptavidine-XL665 [Cisbio Bioassays, Codolet, France] and 1.67 nanomol/L anti-RB(pSer807/pSer8l 1)-antibody from BD Pharmingen [#558389] and 2 nanomol/L LANCE EU-W1024 labeled anti-mouse IgG antibody [Perkin-Elmer, product no. AD0077, as an alternative a Terbium-cryptate-labeled anti-mouse IgG antibody from Cisbio Bioassays can be used]) in an aqueous EDTA-solution (167 millimol/L EDTA, 0.2% (w/v) bovine serum albumin in 100 millimol/L HEPES pH 7.5).
(§1) The resulting mixture was incubated 1 h at 22° C. to allow the formation of complex between the phosphorylated biotinylated peptide and the detection reagents. Subsequently the amount of phosphorylated substrate was evaluated by measurement of the resonance energy transfer from the Eu-chelate to the streptavidine-XL. Therefore, the fluorescence emissions at 620 nm and 665 nm after excitation at 350 nm was measured in a TR-FRET reader, e.g. a Pherastar (BMG Labtechnologies, Offenburg, Germany) or a Viewlux (Perkin-Elmer). The ratio of the emissions at 665 nm and at […] was taken as the measure for the amount of phosphorylated substrate. The data were normalised (enzyme reaction without inhibitor=0% inhibition, all other assay components but no enzyme=100% inhibition).

[2] = biological target: CDK12/CycK (Homo sapiens, UniProt Q9NYV4); test: CDK12/CycK high ATP kinase assay (TR-FRET, 2 mM ATP); format: biochemical; conditions: 2 mM ATP (high ATP); median; read-out: CDK12/CyclinK, 2 mM ATP (high ATP), IC50-[mol/l] (median)
Experimental: In the context of the present invention, the term “IC50 CDK12 hATP” refers to the IC50 values obtained according to the assay described in this section (2.2) herein below, i.e. the IC50 values for the inhibition of CDK12 at high (2 mM) ATP.
CDK12/CycK-inhibitory activity of compounds of the present invention at 2 millimol/L adenosine-tri-phosphate (ATP) was quantified employing the TR-FRET (TR-FRET=Time Resolved Fluorescence Energy Transfer) based CDK12/CycK activity inhibition assay as described in the following paragraphs.
A complex of human recombinant CDK12 and human recombinant CycK (both N-terminally His-tagged, expression and purification as described above) was used as enzyme. As substrate for the kinase reaction biotinylated peptide biotin-Ahx-KFELLPTPPLSPSRRSGL (C-terminus in amid form) was used which can be purchased e.g. form the company Biosyntan (Berlin-Buch, Germany).
For the assay 50 nanoL of a 100 fold concentrated solution of the test compound in DMSO was pipetted into either a black low volume 384 well microtiter plate or a black 1536 well microtiter plate (both Greiner Bio-One, Frickenhausen, Germany), 2 microL of a solution of CDK12/CycK in aqueous assay buffer [25 millimol/L HEPES pH 7.5, 20 millimol/L MgCl2, 5 millimol/L β-glycerophosphate, 2 millimol/L EGTA, 1.0 millimol/L dithiothreitol, 0.01% (v/v) Nonidet-P40 (Sigma), 0.01% (w/v) bovine serum albumin] were added and the mixture was incubated for 15 min at 22° C. to allow pre-binding of the test compounds to the enzyme before the start of the kinase reaction. Then the kinase reaction was started by the addition of 3 microL of a solution ATP (3.33 millimol/L=>final conc. in the 5 microL assay volume is 2 millimol/L) and substrate (1.67 micromol/L=>final conc. in the 5 microL assay volume is 1 micromol/L) in assay buffer and the resulting mixture was incubated for a reaction time of 60 min at 22° C. The concentration of CDK12/CycK was adjusted depending of the activity of the enzyme lot and was chosen appropriate to have the assay in the linear range, typical concentrations were about 0.75 nanomol/L. The reaction was stopped by the addition of 3 microL of a solution of TR-FRET detection reagents (125 nanomol/L streptavidine-XL665 [Cisbio Bioassays, Codolet, France] and 0.67 nanomol/L anti-Phospho-c-Myc (Ser 62) (E1J4K)-antibody from Cell Signalling [#13748] and 2 nanomol/L LANCE EU-W1024 labeled anti-rabbit IgG antibody [Perkin-Elmer, product no. 0083]) in an aqueous EDTA-solution (133 millimol/L EDTA, 0.27% (w/v) bovine serum albumin in 66.7 millimol/L HEPES pH 7.5).
as §1, with “Pherastar FS” for “Pherastar”

Chain of CDK12/CycK (Q9NYV4 with tags, fused parts or gaps): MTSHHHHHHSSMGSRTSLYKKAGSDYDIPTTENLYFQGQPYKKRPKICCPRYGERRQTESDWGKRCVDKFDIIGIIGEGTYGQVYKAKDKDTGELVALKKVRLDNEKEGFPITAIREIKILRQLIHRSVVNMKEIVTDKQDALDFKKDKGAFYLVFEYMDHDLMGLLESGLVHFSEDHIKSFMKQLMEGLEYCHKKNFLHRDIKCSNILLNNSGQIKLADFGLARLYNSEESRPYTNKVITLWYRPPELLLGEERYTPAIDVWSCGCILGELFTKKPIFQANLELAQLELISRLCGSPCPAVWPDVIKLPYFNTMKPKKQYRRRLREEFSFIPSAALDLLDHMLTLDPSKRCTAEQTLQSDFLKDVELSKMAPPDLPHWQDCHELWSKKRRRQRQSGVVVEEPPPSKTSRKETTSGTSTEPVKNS
Chain of CDK12/CycK (O75909 1-300 partner limits assumed): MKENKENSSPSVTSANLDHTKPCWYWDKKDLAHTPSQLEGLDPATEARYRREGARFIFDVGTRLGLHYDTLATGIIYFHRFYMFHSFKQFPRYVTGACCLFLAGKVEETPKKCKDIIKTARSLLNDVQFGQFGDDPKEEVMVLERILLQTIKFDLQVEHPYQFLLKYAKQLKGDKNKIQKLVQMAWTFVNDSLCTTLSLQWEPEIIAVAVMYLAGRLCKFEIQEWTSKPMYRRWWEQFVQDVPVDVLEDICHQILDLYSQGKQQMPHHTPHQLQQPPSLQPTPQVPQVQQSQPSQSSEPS

Row | SMILES | IC50 [1] | IC50 [2]
1 | C[C@@H]1CCCCN1c1nc(NCc2nc3ccccc3[nH]2)n2ncc(Br)c2n1 [Example 140, N-[(1H-benzimidazol-2-yl)methyl]-8-bromo-2-[(2R)-2-methylpiperidin-1-yl]pyrazolo[1,5-a][1,3,5]triazin-4-amine] | 1.25 µM | 8.15 µM
2 | CC(C)c1cnn2c(NCc3nc4ccccc4[nH]3)nc(N3CCCOCC3)nc12 [Example 8, N-[(1H-benzimidazol-2-yl)methyl]-2-(1,4-oxazepan-4-yl)-8-(propan-2-yl)pyrazolo[1,5-a][1,3,5]triazin-4-amine] | 11.1 µM | > 19.8 µM
3 | CN1CCN(c2nc(NCc3nc4cc(F)ccc4[nH]3)n3ncc(Br)c3n2)CC1 [Example 134, 8-bromo-N-[(5-fluoro-1H-benzimidazol-2-yl)methyl]-2-(4-methylpiperazin-1-yl)pyrazolo[1,5-a][1,3,5]triazin-4-amine] | 12 µM | > 17.7 µM
4 | CN1CCN(c2nc(NCc3nnc(-c4cccc(F)c4)[nH]3)n3ncc(Br)c3n2)CC1 [Example 136, 8-bromo-N-{[5-(3-fluorophenyl)-4H-1,2,4-triazol-3-yl]methyl}-2-(4-methylpiperazin-1-yl)pyrazolo[1,5-a][1,3,5]triazin-4-amine] | 3.45 µM | 4.12 µM
5 | Brc1cnn2c(NCc3nc4ccccc4[nH]3)nc(N3CCN4CCC[C@@H]4C3)nc12 [Example 149, N-[(1H-benzimidazol-2-yl)methyl]-8-bromo-2-[(8aR)-hexahydropyrrolo[1,2-a]pyrazin-2 (1 H)-yl]pyrazolo[1,5-a][1,3,5]triazin-4-amine] | 6.38 µM | 6.22 µM
6 | Cc1cccc2[nH]c(CNc3nc(N4CCN(C)CC4)nc4c(Br)cnn34)nc12 [Example 151, 8-bromo-N-[(4-methyl-1H-benzimidazol-2-yl)methyl]-2-(4-methylpiperazin-1-yl)pyrazolo[1,5-a][1,3,5]triazin-4-amine] | 13.4 µM | 4.24 µM
7 | Brc1cnn2c(NCc3nc4ccccc4[nH]3)nc(N3C[C@@H]4C[C@H]3CO4)nc12 [Example 103, N-[(1H-benzimidazol-2-yl)methyl]-8-bromo-2-[(1S,4S)-2-oxa-5-azabicyclo[2.2.1]heptan-5-yl]pyrazolo[1,5-a][1,3,5]triazin-4-amine] | 9.05 µM | 10.3 µM
8 | CN1CCN(c2nc(NCc3nc4c(F)c(F)ccc4[nH]3)n3ncc(Br)c3n2)CC1 [Example 133, 8-bromo-N-[(4,5-difluoro-1H-benzimidazol-2-yl)methyl]-2-(4-methylpiperazin-1-yl)pyrazolo[1,5-a][1,3,5]triazin-4-amine] | 15.1 µM | 7.01 µM
9 | Brc1cnn2c(NCc3nnc(-c4ccccc4)[nH]3)nc(N3C[C@H]4C[C@@H]3CO4)nc12 [Example 118, 8-bromo-2-[(1R,4R)-2-oxa-5-azabicyclo[2.2.1]heptan-5-yl]-N-[(5-phenyl-4H-1,2,4-triazol-3-yl)methyl]pyrazolo[1,5-a][1,3,5]triazin-4-amine] | 3.39 µM | 5.7 µM
10 | CCN1CCN(c2nc(NCc3nc4ccccc4[nH]3)n3ncc(Br)c3n2)CC1 [Example 137, N-[(1H-benzimidazol-2-yl)methyl]-8-bromo-2-(4-ethylpiperazin-1-yl)pyrazolo[1,5-a][1,3,5]triazin-4-amine] | – | 13 µM
11 | COc1ccc2[nH]c(CNc3nc(N4CCN(C)CC4)nc4c(Br)cnn34)nc2c1 [Example 161, 8-bromo-N-[(5-methoxy-1H-benzimidazol-2-yl)methyl]-2-(4-methylpiperazin-1-yl)pyrazolo[1,5-a][1,3,5]triazin-4-amine] | – | 9.61 µM

These reach a lower IC50 [2]. Values come first.

Row | IC50 [1] | IC50 [2] | SMILES
12 | 2.01 µM | 1.78 µM | CC(C)c1cnn2c(NCc3nc4ccccc4[nH]3)nc(N3CCOC[C@@H]3C)nc12 [Example 6, N-[(1H-benzimidazol-2-yl)methyl]-2-[(3S)-3-methylmorpholin-4-yl]-8-(propan-2-yl)pyrazolo[1,5-a][1,3,5]triazin-4-amine]
13 | 1.77 µM | 1.54 µM | Fc1ccc(-c2nnc(CNc3nc(N4CCOCC4)nc4c(Br)cnn34)[nH]2)cc1F [Example 99, 8-bromo-N-{[5-(3,4-difluorophenyl)-4H-1,2,4-triazol-3-yl]methyl}-2-(morpholin-4-yl)pyrazolo[1,5-a][1,3,5]triazin-4-amine]
14 | 1.83 µM | 1.24 µM | Fc1cc(-c2nnc(CNc3nc(N4CCOCC4)nc4c(Br)cnn34)[nH]2)cc(F)c1F [Example 100, 8-bromo-2-(morpholin-4-yl)-N-{[5-(3,4,5-trifluorophenyl)-4H-1,2,4-triazol-3-yl]methyl}pyrazolo[1,5-a][1,3,5]triazin-4-amine]
15 | 2.03 µM | 1.08 µM | Cc1ccc(-c2nnc(CNc3nc(N4CCOCC4)nc4c(Br)cnn34)[nH]2)cc1F [Example 98, 8-bromo-N-{[5-(3-fluoro-4-methylphenyl)-4H-1,2,4-triazol-3-yl]methyl}-2-(morpholin-4-yl)pyrazolo[1,5-a][1,3,5]triazin-4-amine]
16 | 8.21 µM | 0.405 µM | C[C@@H]1CN(c2nc(NCc3nc4cc(F)ccc4[nH]3)n3ncc(Br)c3n2)C[C@H](C)O1 [Example 110, 8-bromo-2-[(2R,6S)-2,6-dimethylmorpholin-4-yl]-N-[(5-fluoro-1H-benzimidazol-2-yl)methyl]pyrazolo[1,5-a][1,3,5]triazin-4-amine]
